Our source for the Ki and EC50 values is patent publication US9346815B2, “5-chloro-2-difluoromethoxyphenyl pyrazolopyrimidine compounds, compositions and methods of use thereof” (Genentech, Inc., priority 2014, dated 2016).

Where a name gives a salt, the structure may show the parent alone.

Experiment [1] concerns the target isolated recombinant JAK1 kinase domain (Homo sapiens (Human), UniProt P23458). Nature of the experiment: JAK1 enzyme assay (Caliper LabChip, peptide phosphorylation). The settings on record: isolated recombinant JAK1 kinase domain, 25 μM ATP. The format is biochemical.
Experiment [2] concerns the target isolated recombinant JAK2 kinase domain (Homo sapiens (Human), UniProt O60674). Nature of the experiment: JAK2 enzyme assay (Caliper LabChip, peptide phosphorylation). The format is biochemical. The settings on record: 25 μM ATP.
Experiment [3] concerns JAK1-dependent STAT6 phosphorylation downstream of IL-13 stimulation in TF-1 human erythroleukemia cells. Nature of the experiment: JAK1 pathway assay in TF-1 cells (IL-13-pSTAT6, MSD). The format is cell-based. The following applies: Homo sapiens, TF-1, TF-1 cells, read-out: IL13-pSTAT6 EC50_TF-1. The method, boiled down:
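Cells were preincubated with compounds (0.2% DMSO) for 30 min (TF-1, GM-CSF-starved overnight, serum-free OptiMEM, 300,000 cells/well) or 1 h (BEAS-2B, complete medium, 100,000 cells/well) at 37 °C.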

isolated recombinant JAK2 kinase domain, sequence (O60674 849-1124): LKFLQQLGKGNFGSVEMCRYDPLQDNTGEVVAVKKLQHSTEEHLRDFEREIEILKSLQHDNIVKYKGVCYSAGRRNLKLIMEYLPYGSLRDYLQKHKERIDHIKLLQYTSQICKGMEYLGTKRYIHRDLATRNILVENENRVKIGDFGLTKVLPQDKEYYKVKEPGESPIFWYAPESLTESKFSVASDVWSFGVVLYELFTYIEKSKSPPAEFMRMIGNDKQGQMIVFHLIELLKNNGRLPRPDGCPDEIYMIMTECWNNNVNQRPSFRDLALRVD
isolated recombinant JAK1 kinase domain, sequence (P23458 875-1153): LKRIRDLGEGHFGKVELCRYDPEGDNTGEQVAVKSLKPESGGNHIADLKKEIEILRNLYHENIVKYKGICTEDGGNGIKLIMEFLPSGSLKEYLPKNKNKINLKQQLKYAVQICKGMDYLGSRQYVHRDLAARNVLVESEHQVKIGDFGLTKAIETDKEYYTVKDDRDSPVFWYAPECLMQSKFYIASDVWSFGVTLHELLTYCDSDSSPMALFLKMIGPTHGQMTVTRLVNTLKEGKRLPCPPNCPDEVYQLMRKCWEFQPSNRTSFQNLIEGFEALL

Usually Ki stands for a measure of affinity in units of concentration, obtained from inhibition or displacement. Regarding `CN(Cc1ccc(Cl)cc1)C1CCN(C(=O)Cn2cc(NC(=O)c3cnn4cccnc34)c(-c3cc(Cl)ccc3OC(F)F)n2)CC1` [Example 126, N-[3-[5-chloro-2-(difluoromethoxy)phenyl]-1-[2-[4-[(4-chlorophenyl)methyl-methyl-amino]-1-piperidyl]-2-oxo-ethyl]pyrazol-4-yl]pyrazolo[1,5-a]pyrimidine-3-carboxamide], the Ki in experiment [1] was found to be 0.63 nM; in experiment [2], 1.8 nM. For the same compound, the EC50 in experiment [3] was determined as 14.9 nM.
The matching figures for `CCCCOc1ccc(CN(C)C2CCN(C(=O)Cn3cc(NC(=O)c4cnn5cccnc45)c(-c4cc(Cl)ccc4OC(F)F)n3)CC2)cc1` [Example 127, N-[1-[2-[4-[(4-butoxyphenyl)methyl-methyl-amino]-1-piperidyl]-2-oxo-ethyl]-3-[5-chloro-2-(difluoromethoxy)phenyl]pyrazol-4-yl]pyrazolo[1,5-a]pyrimidine-3-carboxamide]: 0.78 nM, 2.44 nM and 72.4 nM.
The matching figures for `CN(Cc1cccc(C(F)(F)F)c1)C1CCN(C(=O)Cn2cc(NC(=O)c3cnn4cccnc34)c(-c3cc(Cl)ccc3OC(F)F)n2)CC1` [Example 128, N-[3-[5-chloro-2-(difluoromethoxy)phenyl]-1-[2-[4-[methyl-[[3-(trifluoromethyl)phenyl]methyl]amino]-1-piperidyl]-2-oxo-ethyl]pyrazol-4-yl]pyrazolo[1,5-a]pyrimidine-3-carboxamide]: 1.12 nM, 3.09 nM and 42.5 nM.
The matching figures for `Cc1ccc(CN(C)C2CCN(C(=O)Cn3cc(NC(=O)c4cnn5cccnc45)c(-c4cc(Cl)ccc4OC(F)F)n3)CC2)c(C)c1` [Example 129, N-[3-[5-chloro-2-(difluoromethoxy)phenyl]-1-[2-[4-[(2,4-dimethylphenyl)methyl-methyl-amino]-1-piperidyl]-2-oxo-ethyl]pyrazol-4-yl]pyrazolo[1,5-a]pyrimidine-3-carboxamide]: 1.14 nM, 3.33 nM and 14.2 nM.
On to `CN(Cc1ccc2ccccc2c1)C1CCN(C(=O)Cn2cc(NC(=O)c3cnn4cccnc34)c(-c3cc(Cl)ccc3OC(F)F)n2)CC1` [Example 130, N-[3-[5-chloro-2-(difluoromethoxy)phenyl]-1-[2-[4-[methyl(2-naphthylmethyl)amino]-1-piperidyl]-2-oxo-ethyl]pyrazol-4-yl]pyrazolo[1,5-a]pyrimidine-3-carboxamide], for which the results for the Ki in experiment [1] and in experiment [2] were 1.1 nM and 2.91 nM, respectively. The EC50 in experiment [3] stood at 32.3 nM.
The matching figures for `CN(Cc1ccc(F)c(Br)c1)C1CCN(C(=O)Cn2cc(NC(=O)c3cnn4cccnc34)c(-c3cc(Cl)ccc3OC(F)F)n2)CC1` [Example 131, N-[1-[2-[4-[(3-bromo-4-fluoro-phenyl)methyl-methyl-amino]-1-piperidyl]-2-oxo-ethyl]-3-[5-chloro-2-(difluoromethoxy)phenyl]pyrazol-4-yl]pyrazolo[1,5-a]pyrimidine-3-carboxamide]: 1.07 nM, 2.68 nM and 23.7 nM.
The matching figures for `O=C(Nc1cn(CC(=O)N2CCC(N3Cc4ccc(Cl)cc4C3)CC2)nc1-c1cc(Cl)ccc1OC(F)F)c1cnn2cccnc12` [Example 135, N-[3-[5-chloro-2-(difluoromethoxy)phenyl]-1-[2-[4-(5-chloroisoindolin-2-yl)-1-piperidyl]-2-oxo-ethyl]pyrazol-4-yl]pyrazolo[1,5-a]pyrimidine-3-carboxamide]: 0.52 nM, 1.15 nM and 26.9 nM.
In the case of `CN(C)C1CCN(C(=O)Cn2cc(NC(=O)c3c(N)nn4cccnc34)c(-c3cc(Cl)ccc3OC(F)F)n2)C1` (stereo not drawn) [Example 136, 2-amino-N-[3-[5-chloro-2-(difluoromethoxy)phenyl]-1-[2-[3-(dimethylamino)pyrrolidin-1-yl]-2-oxo-ethyl]pyrazol-4-yl]pyrazolo[1,5-a]pyrimidine-3-carboxamide], the Ki in experiment [1] was determined as 0.64 nM; in experiment [2], 0.25 nM. Besides, the EC50 in experiment [3] is 36.7 nM.
The matching figures for `CN(C)C1CCN(C(=O)Cn2cc(NC(=O)c3c(N)nn4cccnc34)c(-c3cc(Cl)ccc3OC(F)F)n2)CC1` [Example 139, 2-amino-N-[3-[5-chloro-2-(difluoromethoxy)phenyl]-1-[2-[4-(dimethylamino)-1-piperidyl]-2-oxo-ethyl]pyrazol-4-yl]pyrazolo[1,5-a]pyrimidine-3-carboxamide]: 0.78 nM, 0.36 nM and 40.2 nM.
The matching figures for `CN(CCO)C1CCN(C(=O)Cn2cc(NC(=O)c3c(N)nn4cccnc34)c(-c3cc(Cl)ccc3OC(F)F)n2)CC1` [Example 140, 2-amino-N-[3-[5-chloro-2-(difluoromethoxy)phenyl]-1-[2-[4-[2-hydroxyethyl(methyl)amino]-1-piperidyl]-2-oxo-ethyl]pyrazol-4-yl]pyrazolo[1,5-a]pyrimidine-3-carboxamide]: 0.46 nM, 0.39 nM and 29.3 nM.
The matching figures for `COCCN(C)C1CCN(C(=O)Cn2cc(NC(=O)c3c(N)nn4cccnc34)c(-c3cc(Cl)ccc3OC(F)F)n2)CC1` [Example 141, 2-amino-N-[3-[5-chloro-2-(difluoromethoxy)phenyl]-1-[2-[4-[2-methoxy-ethyl(methyl)amino]-1-piperidyl]-2-oxo-ethyl]pyrazol-4-yl]pyrazolo[1,5-a]pyrimidine-3-carboxamide]: 0.68 nM, 0.59 nM and 15 nM.
In the case of `CC(=O)NCCCN1CCC(n2cc(NC(=O)c3cnn4cccnc34)c(-c3cc(Cl)ccc3OC(F)F)n2)CC1` [Example 142, Pyrazolo[1,5-a]pyrimidine-3-carboxylic acid [1-[1-(3-acetylaminopropyl)piperidin-4-yl]-3-(5-chloro-2-difluoromethoxyphenyl)-1H-pyrazol-4-yl]amide hydrochloride], the Ki was 1.65 nM in experiment [1] and 0.38 nM in experiment [2]. In addition, in experiment [3], the EC50 amounted to 36.3 nM.
The matching figures for `Nc1nn2cccnc2c1C(=O)Nc1cn(C2CCN(CCCC(=O)N3CCCCC3)CC2)nc1-c1cc(Cl)ccc1OC(F)F` [Example 143, 2-amino-N-[3-[5-chloro-2-(difluoromethoxy)phenyl]-1-[1-[4-oxo-4-(1-piperidyl)butyl]-4-piperidyl]pyrazol-4-yl]pyrazolo[1,5-a]pyrimidine-3-carboxamide]: 0.76 nM, 0.18 nM and 20.4 nM.
The matching figures for `Nc1nn2cccnc2c1C(=O)Nc1cn(C2CCN(CCCNC(=O)c3ccccc3)CC2)nc1-c1cc(Cl)ccc1OC(F)F` [Example 145, 2-amino-N-[1-[1-(3-benzamidopropyl)-4-piperidyl]-3-[5-chloro-2-(difluoromethoxy)phenyl]pyrazol-4-yl]pyrazolo[1,5-a]pyrimidine-3-carboxamide]: 0.57 nM, 0.16 nM and 14.8 nM.
The matching figures for `Nc1nn2cccnc2c1C(=O)Nc1cn(C2CCN(CCCN3CCCC3=O)CC2)nc1-c1cc(Cl)ccc1OC(F)F` [Example 146, 2-amino-N-[3-[5-chloro-2-(difluoromethoxy)phenyl]-1-[1-[3-(2-oxopyrrolidin-1-yl)propyl]-4-piperidyl]pyrazol-4-yl]pyrazolo[1,5-a]pyrimidine-3-carboxamide]: 0.45 nM, 0.13 nM and 3.9 nM.
